In patent publication US8933102B2, “Pyrrolidine derived β3 adrenergic receptor agonists” (Merck Sharp & Dohme Corp., priority 2010, dated 2015):

Biological target: T1, human β3 adrenergic receptor (Homo sapiens, UniProt P13945)
T1 construct: expressed in transfected cells; host or cells: Chinese hamster ovary (CHO) cells, stably transfected
Assay: Beta-3 agonist in vitro functional assay (cAMP production, LANCE, CHO cells stably transfected with cloned β3 receptor)
Format: cell-based
Conditions: cAMP production in CHO cells expressing human β3 AR; ranges as class symbols; read-out: Human β3 agonist functional activity
Experimental: Functional Assay: cAMP production in response to ligand is measured according to Barton, et al. (1991, Agonist-induced desensitization of D2 dopamine receptors in human Y-79 retinoblastoma cells. Mol. Pharmacol. […]) modified as follows. cAMP production is measured using a homogenous time-resolved fluorescence resonance energy transfer immunoassay (LANCE™, Perkin Elmer) according to the manufacture's instructions. Chinese hamster ovary (CHO) cells, stably transfected with the cloned β-adrenergic receptor (β1, β2 or β3) are harvested after 3 days of subculturing. Harvesting of cells is done with Enzyme-free Dissociation Media (Specialty Media). Cells are then counted and resuspended in assay buffer (Hank's Balanced salt solution supplemented with 5 mM HEPES, […]) containing a phosphodiesterase inhibitor (IBMX, 0.6 mM). The reaction is initiated by mixing 6,000 cells in 6 μL with 6 μL Alexa Fluor labeled cAMP antibody (LANCE™ kit) which is then added to an assay well containing 12 μL of compound (diluted in assay buffer to 2× final concentration). The reaction proceeds for 30 minutes at RT and is terminated by the addition of 24 ul detection buffer (LANCE™ kit). The assay plate is then incubated for 1 h at RT and time-resolved fluorescence measured on a Perkin Elmer Envision reader or equivalent. The unknown cAMP level is determined by comparing fluorescence levels to a cAMP standard curve.
The non-selective, full agonist 13-adrenergic ligand isoproterenol is used at all three receptors to determine maximal stimulation. The human β3 adrenergic receptor (AR) selective ligand (S)—N-[4-[2-[[2-hydroxy-3-(4-hydroxyphenoxy)propyl]amino]ethyl]-phenyl]-4-iodobenzenesulfonamide is used as a control in all assays. Isoproterenol is titrated at a final concentration in the assay of 10^-10 M to 10-5 and the selective ligand (S)—N-[4-[2-[[2-hydroxy-3-(4-hydroxyphenoxy)propyl]amino]ethyl]phenyl]-4-iodobenzenesulfonamide is titrated at the β3 receptor at concentration of 10^-10 M to 10^-5 M. Unknown ligands are titrated at all 3 β-adrenergic receptor subtypes at a final concentration in the assay of 10^-10 M to 10^-5 M to determine the EC50. The EC50 is defined as the concentration of compound that gives 50% activation of its own maximum. Data are analyzed using Microsoft Excel and Graphpad Prism or an internally developed data analysis software package.

T1 sequence (P13945 whole entry): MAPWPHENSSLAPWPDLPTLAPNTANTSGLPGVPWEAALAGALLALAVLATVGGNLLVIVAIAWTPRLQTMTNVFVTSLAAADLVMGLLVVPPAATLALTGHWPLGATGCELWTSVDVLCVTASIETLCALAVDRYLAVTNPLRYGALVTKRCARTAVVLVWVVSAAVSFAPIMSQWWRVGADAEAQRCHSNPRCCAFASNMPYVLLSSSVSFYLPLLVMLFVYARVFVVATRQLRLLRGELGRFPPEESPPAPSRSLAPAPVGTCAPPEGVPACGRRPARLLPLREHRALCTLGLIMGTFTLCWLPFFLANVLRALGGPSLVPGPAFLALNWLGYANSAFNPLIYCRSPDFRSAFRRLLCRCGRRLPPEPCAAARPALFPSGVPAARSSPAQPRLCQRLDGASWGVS

Structure (SMILES) | EC50 [nM]
O=C(c1ccc(C[C@@H]2CC[C@H]([C@H](O)COc3ccccc3)N2)cc1)N1CCC(n2nccn2)CC1 [Example 2] | 1 to 10
O=C(c1ccc(C[C@@H]2CC[C@H]([C@H](O)COc3ccccc3)N2)cc1)N1CCC(n2ccnn2)CC1 [Example 3] | 11 to 100
Cn1nnnc1C1CCN(C(=O)c2ccc(C[C@@H]3CC[C@H]([C@H](O)COc4ccccc4)N3)cc2)CC1 [Example 4] | < 1

More lines, now with the values ahead:

EC50 [nM] | Structure (SMILES)
< 1 | O=C(c1ccc(C[C@@H]2CC[C@H]([C@H](O)COc3ccccc3)N2)cc1)N1C[C@@H]2[C@H](C1)[C@H]2n1cnnn1 [Example 5]
1 to 10 | O=C(c1ccc(C[C@@H]2CC[C@H]([C@H](O)COc3ccccc3)N2)cc1)N1CCN(Cc2ccncn2)CC1 [Example 6]

Same assay, conditions: cAMP production in CHO cells expressing human β3 AR; read-out: human Beta-3 agonist functional activity

EC50 [nM] | Structure (SMILES)
1 to 10 | O=C(c1ccc(C[C@@H]2CC[C@H]([C@H](O)COc3ccccc3)N2)cc1)N1CCC(n2cccn2)CC1 [Example 1]
